According to EP4772520A1, “NOVEL PRODRUG-TYPE ANTICANCER AGENT TARGETING CANCER-SPECIFIC ENZYME ACTIVITY” (priority 2023, dated 2025):
“And” between values parts separate entries of the source, which are not always exact repeats. Equal values may be shown once. “Also recorded” adds a separate entry of the source.

Columns and labels:
[1] = target: T1, Human β-Galactosidase 1 (GLB1) (Homo sapiens, UniProt P16278); assay: Evaluation of drug release using LC-MS; assay type: biochemical; settings: GLB1 purified enzyme added
T1 sequence (P16278 29-677): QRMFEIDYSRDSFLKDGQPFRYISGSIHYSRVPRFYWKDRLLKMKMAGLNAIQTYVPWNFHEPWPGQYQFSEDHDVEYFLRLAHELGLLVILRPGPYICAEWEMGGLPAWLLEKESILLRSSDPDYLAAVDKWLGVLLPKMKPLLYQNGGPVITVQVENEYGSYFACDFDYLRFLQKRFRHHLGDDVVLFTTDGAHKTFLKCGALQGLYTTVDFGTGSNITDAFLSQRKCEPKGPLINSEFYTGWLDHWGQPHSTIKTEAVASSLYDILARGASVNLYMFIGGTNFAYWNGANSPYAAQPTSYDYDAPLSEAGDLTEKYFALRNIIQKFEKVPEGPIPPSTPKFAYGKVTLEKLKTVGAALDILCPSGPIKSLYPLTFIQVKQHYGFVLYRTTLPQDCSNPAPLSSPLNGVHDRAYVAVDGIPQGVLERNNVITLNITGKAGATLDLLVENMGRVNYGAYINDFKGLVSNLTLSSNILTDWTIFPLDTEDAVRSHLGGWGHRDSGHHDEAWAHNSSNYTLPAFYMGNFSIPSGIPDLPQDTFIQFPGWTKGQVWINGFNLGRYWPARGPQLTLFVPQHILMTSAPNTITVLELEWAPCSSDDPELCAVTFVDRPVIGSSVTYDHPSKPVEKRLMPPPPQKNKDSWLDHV
Source text: Reactivity with Human β-Galactosidase 1 (GLB1), which is an assumed target enzyme of SN38-βGal, was confirmed using LC-MS.

[2] = test system: luciferase-expressing SKOV3 cells; assay: Therapeutic experiment of SN38-βGal in SKOV3 ovarian cancer peritoneal dissemination model; assay type: in vivo, mice; settings: for body weight: 20 mg/kg i.p. 5 times a week; for tumor proliferation suppression effect: 20 mg/kg i.p. 5 times a week over 4 weeks and 3 days, vs Vehicle, 20 mg/kg
Experimental: Next, the therapeutic effect of SN38-βGal in the ovarian cancer peritoneal dissemination model was verified. Vehicle (DMSO) group (n = 5), SN38-βGal, and 20 mg/kg (n = 4) were set, and 20 mg/kg was intraperitoneally administered 5 times a week (2 days off) over 4 weeks and 3 days.
A specific procedure of the therapeutic experiment is shown below. • (1) 1.5 × 10^6 luciferase-expressing SKOV3 cells were intraperitoneally administered to BALB/cAJcl-nu/nu (7 weeks old). • (2) After one week, the formation of cancer was confirmed by luciferin/luciferase chemiluminescence. • (3) Intraperitoneal administration of the drug was started in a cycle in which the drug was administered to the mice in which formation of cancer was confirmed for five consecutive days within 1 week and the drug was withdrawn for 2 days. The drug was prepared by dissolving a 100 mM of DMSO stock in PBS, and administered in a total amount of 100 µL. • (4) On the evaluation day, 3 mg of luciferin potassium dissolved in 200 µL of PBS was intraperitoneally administered, and anesthetized with isoflurane, and then the luminescence value 15 minutes after the administration was measured with an in vivo imaging device. At the same time, the body weight was measured.
According to the same protocol as that of the first therapeutic experiment, Vehicle (DMSO) group (n = 5), SN38-βGal, and 20 mg/kg (n = 4) were set, and 20 mg/kg was intraperitoneally administered 5 times a week (2 days off) over 4 weeks and 3 days.

in vivo = settings: for AUC(0-t) at 6 h: AUC0-6h (μg・h/mL); for clearance: CLtot (mL/min/kg); for AUC0-6h (μg・h/mL): 360 min
Source text: A specific test procedure is shown below. • (1) Three marmosets (6 males in total) in each of the SN38-βGal and SN38-βGlcNAc administration groups were sequentially retained using a retention device, and a tail of the administration site was shaved. • (2) The base of the tail from the injection site was avascularized to cause blood vessels to become engorged. Veins running on both left and right sides of the tail were checked, the puncture site was disinfected with alcohol cotton, and then administration was performed with a 27 G injection needle using one of the left and right blood vessels. For administration, 1.0 mg/mL of prepared administration solution of SN38-βGal or SN38-βGlcNAc was intravenously administered at an injection rate of 350 µL/min (about 11 minutes: due to different body weight, the time τ actually required for the injection was accurately recorded for each individual) by an infusion pump at a dose of 10 mg/10 mL/kg. • (3) Immediately after the start of infusion administration, about 220 µL of blood was collected with a heparinized syringe at 5, 15, 30, 45 minutes, 1, 2, 3, and 6 hours, and centrifuged at 1200 G and 4°C for 15 minutes to collect plasma. • (4) After the plasma was dispensed into the microtube, 100 µL of the plasma was accurately taken, and a 200 µM of inhibitor N-(n-nonyl) deoxygalactonoijirimycin solution in the SN38-βGal administration group, a 200 µM of inhibitor PUGNAc solution in the SN38-βGlcNAc administration group, and 100 µL of each were added to the microtube dispensed in advance and mixed quickly.

[3] = test system: lung squamous carcinomas cell H226; assay: Tumor proliferation suppression test in H226 subcutaneous tumor model; assay type: in vivo, mice; settings: 200 mg/kg i.v. 3 times a week for 2 weeks, n = 5, vs Vehicle
Experimental: 200 mg/kg of SN38-βGlcNAc was intravenously administered 3 times a week for 2 weeks to subcutaneous tumor model mice of lung squamous carcinomas cell H226, and the tumor proliferation suppression effect was evaluated. The Vehicle (DMSO administration) group and the SN38-βGlcNAc administration group were n = 5, respectively.
The drug SN38-βGlcNAc was prepared by dissolving a 200 mM of DMSO stock in PBS, and was intravenously administered from the tail vein 3 times a week for 2 weeks at a dose of 200 mg/kg with a total amount of 100 µL. • (3) The body weight was measured on the day of evaluation, and the tumor volume was evaluated with a vernier caliper. • (4) Tumors were resected on day 19 from the start of dosing and their sizes were compared.

[4] = marmoset, in vivo, iv, 10 mg/kg, prodrug, 11 min infusion, N=3, average
[5] = marmoset, in vivo, iv, 10 mg/kg, Vd (L/kg), prodrug, 11 min infusion, N=3, average
[6] = marmoset, in vivo, iv, 10 mg/kg, Vd (L/kg), prodrug, 10 mg/kg i.v., individual marmosets
[7] = marmoset, in vivo, iv, 10 mg/kg, blood half-life, prodrug, 10 mg/kg i.v., 11 minutes infusion
[8] = marmoset, in vivo, iv, 10 mg/kg, t1/2 (h), prodrug, 11 min infusion, N=3, average
[9] = marmoset, in vivo, iv, 10 mg/kg, t1/2 (h), prodrug, 10 mg/kg i.v., individual marmosets
[10] = prodrug, 10 mg/kg i.v., individual marmosets, 10 mg/kg
[11] = marmoset, in vivo, iv, 10 mg/kg, prodrug, 10 mg/kg i.v., individual marmosets

SMILES	abnormalities after drug administration (in vivo; 10 mg/kg i.v.)	AUC(0-t) at 6 h (in vivo; [4]) [ng·h/mL]	clearance (in vivo; [4]) [mL/min/kg]	Vd (in vivo; [5]) [L/kg]	Vd (in vivo; [6]) [L/kg]	half-life (in vivo; [7]) [min]	half-life (in vivo; [8]) [min]	half-life (in vivo; [9]) [min]	CLtot (in vivo; [10])	Vd (in vivo; [10])	t1/2 (in vivo; [10])	AUC0-6h (μg・h/mL) (in vivo; [10])	other results
CCc1c2c(nc3ccc(O[C@@H]4O[C@H](CO)[C@H](O)[C@H](O)[C@H]4O)cc13)-c1cc3c(c(=O)n1C2)COC(=O)[C@]3(O)CC [SN38-βGal]	remarkable abnormalities, vomiting, and the like were not found in any individual	52700	3.5	0.215	0.205	58.3	58.3	49.9	3.4 mL/min/kg and 2.2 mL/min/kg and 4.8 mL/min/kg	0.169 L/kg and 0.271 L/kg	58.7 min and 66.3 min	48.57 μg・h/mL and 75.13 μg・h/mL and 34.47 μg・h/mL	release of SN38 [1]: the release of SN38 showing an anticancer effect was confirmed; body weight ([2]; first experiment): no significant body weight loss was found; tumor proliferation suppression effect ([2]; first experiment): the tumor proliferation suppression effect was suggested again; also recorded: significantly suppressed tumor growth; body weight ([2]; second experiment): no significant body weight loss was found; tumor proliferation suppression effect ([2]; second experiment): the tumor proliferation suppression effect was confirmed again; also recorded: significantly suppressed tumor growth
CCc1c2c(nc3ccc(O[C@@H]4O[C@H](CO)[C@@H](O)[C@H](O)[C@H]4NC(C)=O)cc13)-c1cc3c(c(=O)n1C2)COC(=O)[C@]3(O)CC [SN38-βGlcNAc]	remarkable abnormalities, vomiting, and the like were not found in any individual	78300	2.2	0.142	0.149	47.6	47.6	43.9	2.0 mL/min/kg	0.134 L/kg and 0.143 L/kg	49.7 min and 49.3 min	84.34 μg・h/mL and 76.92 μg・h/mL	tumor proliferation suppression effect (tumor volume) [3]: the tumor growth was almost completely suppressed; AUC(0-t) at 6 h (in vivo; [11]): 73500 ng·h/mL; AUC (in vivo; marmoset, in vivo, iv, 10 mg/kg, AUC0- (μg・h/mL), prodrug, 10 mg/kg i.v., individual marmosets): 73800 ng·h/mL; clearance (in vivo; [11]): 2.3 mL/min/kg
